{"source": "patent US11160882B2", "about": "“Indirect chromoendoscopy with an oral indigo carmine base preparation” (priority 2014, dated 2021)", "origin": "cited, not measured here", "key": {"[1]": {"settings": "rat, oral (Lethco et al., 1966)"}, "[2]": {"settings": "humans (Oravisto K., 1957)"}, "[3]": {"test_system": "colon", "settings": "100 mg oral powder before the colonic prep"}, "[4]": {"test_system": "colon", "settings": "100 mg oral capsule before the colonic prep"}}, "data": [{"molecule": "O=C1/C(=C2\\Nc3ccc(S(=O)(=O)[O-])cc3C2=O)Nc2ccc(S(=O)(=O)[O-])cc21.[Na+].[Na+]", "note": "[indigo carmine]", "values": [{"measurement": "dye taken orally that was absorbed", "setting": "[1]", "value": 3, "unit": "%"}, {"measurement": "clearance of absorbed food colorant from circulation", "setting": "[2]", "value": "cleared very rapidly"}, {"measurement": "toxicity from oral administration", "setting": "oral administration", "value": "no reports of toxicity"}, {"measurement": "daily intake certified by the FDA", "setting": "use as a food colorant", "value": "up to 2 mg/kg"}, {"measurement": "side effects", "setting": "[3]", "value": "No side effects were observed"}, {"measurement": "cases with good effect (staining), left colon", "setting": "[3]; left colon", "value": 50, "unit": "%"}, {"measurement": "cases with good effect (staining), right colon", "setting": "[3]; right colon", "value": 80, "unit": "%"}, {"measurement": "cases in which staining of the entire colon was ineffective", "setting": "[4]", "value": "over 90%"}]}]}
